Measured values: the METLIN SMRT retention time set (Domingo-Almenara et al. 2019)

assay: gradient 5% acetonitrile 3 min, to 50% in 2 min, to 85% in 15 min, held 3 min, 100 µL/min; conditions: column: Zorbax Extend-C18 2.1 x 50 mm; eluents: water / acetonitrile, 0.1% formic acid
Method in brief: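 A Zorbax Extend-C18 column (2.1 × 50 mm, 1.8 μm) run at 100 μL/min with water and acetonitrile, both containing 0.1% formic acid, separated mixtures of ~100 pure standards. The HPLC was coupled to a quadrupole time-of-flight mass spectrometer operated in positive and negative ionization mode, with dead and dwell volumes of 40 μL and 900 μL. Each retention time was taken from a computationally picked adduct peak that was then manually inspected.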

RP-LC retention time [s]	Structure (SMILES)
709	CN(C)c1cccc(C(=O)NCc2nn(C)c3ccccc23)c1
952	O=C(Cn1c(=O)cc(-c2nc(C3CC3)no2)c2ccccc21)Nc1cccc(F)c1
672	Cc1ccn2c(NC(=O)c3ccc(F)cc3)c(-c3ccc(F)cc3)nc2c1
780	CCCNC(=O)c1cn(-c2cc(-c3nc(CC)no3)ccn2)cn1
685	CCc1nccn1Cc1nc(-c2cccc(Br)c2)no1
601	COc1cccc(S(=O)(=O)N2CC(n3ccnc3)C2)c1
734	CCOc1ccc(-n2nnc(C(=O)O)c2COC)cc1
1240	CCCOc1nc2ccccc2nc1N1CCCC(C(=O)NCc2ccc(C)cc2)C1 (configuration not stated)
627	O=S(=O)(c1cccc2nsnc12)N1CCCn2nc(-c3cccnc3)cc2C1
649	CCC(C)NC(=O)C(=O)NCc1n[nH]c(=O)c2ccccc12 (configuration not stated)
678	CN1Cc2c(N)cccc2C(c2ccccc2)C1 (configuration not stated)
770	COc1ncc(C(=O)N2CCN(c3ccccc3F)CC2)cn1
585	COCCNC(=O)c1nc(-c2ccnc(N3CCCC3)c2)no1
525	CN(C)c1ccc(CCCNC(=O)C2CC2)cc1
858	O=C(Cc1cccs1)NCc1cc(-c2ccc(Cl)cc2)on1
749	O=C(NCc1ccco1)c1ccc2c(c1)C(=O)c1ccccc1-2
1010	CCc1nc2cc(-c3noc(-c4cc5ccccc5oc4=O)n3)ccc2o1
791	CC(=O)c1ccc(NC(=O)CN2C(=O)CCn3nc(-c4cn(C)c5ccccc45)cc32)cc1
1020	CCOC(=O)c1cc2ccsc2n1CC(=O)Nc1ccc(F)c(F)c1

RP-LC retention time [s]	Structure (SMILES)
1020	Cc1ccc(-c2ccc(-n3nc(C)c(S(=O)(=O)NCc4ccc5c(c4)OCO5)c3C)nn2)cc1
655	CSc1ccc(CNC(=O)c2cc(-c3ccncc3)cn2C)cc1
990	Cc1sc(-c2cc(C(F)(F)F)[nH]n2)cc1S(=O)(=O)NCCc1cccs1
795	Cc1nc2c([nH]1)CCN(C(=O)c1ccc(NC(=O)c3ccccc3-c3ccccc3)cc1)c1ccccc1-2
630	CCN1CCN(CCNC(=O)C(C)C2CCN(C(=O)c3cc4cc(Cl)ccc4[nH]3)CC2)CC1 (configuration not stated)
862	CCOC(=O)c1c(S(=O)(=O)N2CCC(C(=O)NCc3ccccc3Cl)CC2)c(C)n(C)c1C
760	COc1ccc(C(=O)Nc2cc(-c3cccnc3)no2)c(C)c1
576	CC(=O)N1CCN(c2nc3c(s2)CC(C(=O)NCc2cc(C)ccc2C)CC3)CC1 (configuration not stated)
819	CNC(=O)N1CCCC(c2cccc(C(=O)NCc3cccc(Br)c3)c2)C1 (configuration not stated)
702	CN1C(=O)c2ccccc2Sc2cc(-c3noc(CNC(=O)c4ccco4)n3)ccc21
742	COCCNc1c(-c2cccc(F)c2)nc2sc(C(=O)N(C)C)c(C)n12
823	O=C(Nc1nc2c(s1)CN(S(=O)(=O)c1ccccc1)CC2)c1ccoc1
596	Cc1cc(=O)n(CC(=O)NCc2ccc(F)cc2F)c(N)n1
1250	CC(C)(C)c1ccc(-c2nc(C3CC(=O)N(c4ccc(F)cc4)C3)no2)cc1 (configuration not stated)
748	CC(=O)c1ccc(NC(=O)NC2CCN(c3nc4ccccc4n(C)c3=O)CC2)cc1
527	Cn1ncc2c3ccccc3n(CC(=O)NCCCN3CCC(N4CCCCC4)CC3)c2c1=O
862	Cc1ccc(-c2cc3n(n2)CCCN(C(=O)c2cccc(C#N)c2)C3)cc1
783	CCc1nc2onc(C)c2c(=O)n1CC(=O)NCc1ccc(F)cc1
